Measured values as given in article PMC2680345 (Journal of Antimicrobial Chemotherapy, 2009).
Like-named read-outs stand apart in the source and are kept apart here. Each block holds one compound with its values, some of them ahead of it.

Assays:
[1] = cited from earlier work
clinical = details: both, human, in vivo
[2] = for θ2 (factor associated with the covariate) / θ1 (typical value of V/F) / θ1 (typical value of ka): univariate model
Plasma concentrations = format: in vivo; details: human, oral, ritonavir AUC0–24, median, external dataset, 18 HIV-infected patients, atazanavir/ritonavir/saquinavir 200/100/1600 mg once daily
[3] = final model, 300/100 mg once daily
[4] = influence of Black-African ethnicity on V/F: V = θ1 * θ2^AFR
[5] = influence of Black-African ethnicity on ka: ka = θ1 * θ2^AFR
[6] = influence of HIV status on V/F: V = θ1 * θ2^HIV
[7] = influence of HIV status on ka: ka = θ1 * θ2^HIV
[8] = influence of Hispanic ethnicity on ka: ka = θ1 * θ2^HSP
[9] = influence of RTV AUC0–24 on V/F: V = θ1 * (RTV/7.52)^θ2
[10] = influence of SQV on V/F: V = θ1 * θ2^SQV
[11] = influence of TDF on V/F: V = θ1 * θ2^TDF
[12] = influence of TDF on ka: ka = θ1 * θ2^TDF
[13] = influence of sex on V/F: V = θ1 * θ2^SEX
[14] = influence of weight on V/F: V = θ1 + θ2 * (WT − 76.2)

Vd/F (clinical): 103 L
IIV CL/F (inter-individual variability) ([2]; basic model): 48%
IIV V/F (inter-individual variability) ([2]; basic model): 48%
IIV ka (inter-individual variability) ([2]; basic model): 154%
CL/F (apparent oral clearance) ([2]; basic model (no covariates), 300/100 mg once daily): 7.6 L/h
mean individual predicted CL/F ([2]; females): 6.40 L/h
IIV CL/F (inter-individual variability) [2, 3]: 29%
IIV V/F (inter-individual variability) [2, 3]: 48%
IIV ka (inter-individual variability) [2, 3]: 154%
reduction of variability of CL/F by inclusion of ritonavir AUC0–24 as covariate ([2]; final versus basic model): 19%
mean individual predicted CL/F ([2]; males): 8.99 L/h
lower mean individual predicted CL/F in females compared with males ([2]; not significant): ~29%
θ2 (factor associated with the covariate) ([2]; influence of Black-African ethnicity on CL/F: CL = θ1 * θ2^AFR): 0.91
θ1 (typical value of V/F) [2, 4]: 100
θ2 (factor associated with the covariate) [2, 4]: 1.23
θ1 (typical value of ka) [2, 5]: 3.28
θ2 (factor associated with the covariate) [2, 5]: 1.44
θ2 (factor associated with the covariate) ([2]; influence of HIV status on CL/F: CL = θ1 * θ2^HIV): 0.80
θ1 (typical value of V/F) [2, 6]: 118
θ2 (factor associated with the covariate) [2, 6]: 0.81
θ1 (typical value of ka) [2, 7]: 2.77
θ2 (factor associated with the covariate) [2, 7]: 1.42
θ2 (factor associated with the covariate) ([2]; influence of Hispanic ethnicity on CL/F: CL = θ1 * θ2^HSP): 1.60
θ1 (typical value of ka) [2, 8]: 2.81
θ2 (factor associated with the covariate) [2, 8]: 4.42
θ2 (factor associated with the covariate) ([2]; influence of RTV AUC0–24 on CL/F: CL = θ1 * (RTV/7.52)^θ2): −0.84
θ1 (typical value of V/F) [2, 9]: 104
θ2 (factor associated with the covariate) [2, 9]: −0.50
θ2 (factor associated with the covariate) ([2]; influence of SQV (1600 mg once daily) on CL/F: CL = θ1 * θ2^SQV): 0.67
θ1 (typical value of V/F) [2, 10]: 123
θ2 (factor associated with the covariate) [2, 10]: 0.64
θ2 (factor associated with the covariate) ([2]; influence of TDF (300 mg once daily) on CL/F: CL = θ1 * θ2^TDF): 0.83
θ1 (typical value of V/F) [2, 11]: 108
θ2 (factor associated with the covariate) [2, 11]: 0.71
θ1 (typical value of ka) [2, 12]: 3.43
θ2 (factor associated with the covariate) [2, 12]: 1.10
θ2 (factor associated with the covariate) ([2]; influence of sex on CL/F: CL = θ1 * θ2^SEX): 0.77
θ1 (typical value of V/F) [2, 13]: 98.7
θ2 (factor associated with the covariate) [2, 13]: 1.26
θ2 (factor associated with the covariate) ([2]; influence of weight on CL/F: CL = θ1 + θ2 * (WT − 76.2)): 0.13
θ1 (typical value of V/F) [2, 14]: 105
θ2 (factor associated with the covariate) [2, 14]: 1.26
SMILES: COC(=O)N[C@H](C(=O)N[C@@H](Cc1ccccc1)[C@@H](O)CN(Cc1ccc(-c2ccccn2)cc1)NC(=O)[C@@H](NC(=O)OC)C(C)(C)C)C(C)(C)C [atazanavir, Atazanavir]
AUC0–24 lower in HIV patients compared with healthy individuals [1]: ~20%
minimum concentrations lower in HIV patients compared with healthy individuals [1]: ~50%
peak concentrations lower in HIV patients compared with healthy individuals [1]: ~30%
half-life ([1]; population analysis by Colombo et al.): 8.8 h

AUC(0-t) (Plasma concentrations): 9060 ng·h/mL
SMILES: CC(C)c1nc(CN(C)C(=O)N[C@H](C(=O)N[C@@H](Cc2ccccc2)C[C@H](O)[C@H](Cc2ccccc2)NC(=O)OCc2cncs2)C(C)C)cs1 [ritonavir]
